In patent publication US9783527B2, “Indazole ureas and method of use” (AbbVie Inc., priority 2014, dated 2017):

molecular target: human Nav1.7 (Homo sapiens (Human), UniProt Q15858); assay: FRET-based membrane potential assay, recombinant human sodium channel Nav1.7; assay type: cell-based; settings: HEK293 cells stably expressing recombinant human Nav1.7; depolarization with veratridine (EC80) + scorpion venom
Procedure, shortened: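 IC50 derived by four-parameter Hill fit of percent inhibition of depolarization, measured as peak F440-480/F565-625 ratio over baseline. Stable human Nav1.7 HEK293 cells, dye-loaded with CC2-DMPE and DiSBAC2(3)/VABSC-1 at room temperature, received compound 3 min ahead of veratridine (EC80) plus scorpion venom.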

Chain of human Nav1.7 (Q15858 whole entry): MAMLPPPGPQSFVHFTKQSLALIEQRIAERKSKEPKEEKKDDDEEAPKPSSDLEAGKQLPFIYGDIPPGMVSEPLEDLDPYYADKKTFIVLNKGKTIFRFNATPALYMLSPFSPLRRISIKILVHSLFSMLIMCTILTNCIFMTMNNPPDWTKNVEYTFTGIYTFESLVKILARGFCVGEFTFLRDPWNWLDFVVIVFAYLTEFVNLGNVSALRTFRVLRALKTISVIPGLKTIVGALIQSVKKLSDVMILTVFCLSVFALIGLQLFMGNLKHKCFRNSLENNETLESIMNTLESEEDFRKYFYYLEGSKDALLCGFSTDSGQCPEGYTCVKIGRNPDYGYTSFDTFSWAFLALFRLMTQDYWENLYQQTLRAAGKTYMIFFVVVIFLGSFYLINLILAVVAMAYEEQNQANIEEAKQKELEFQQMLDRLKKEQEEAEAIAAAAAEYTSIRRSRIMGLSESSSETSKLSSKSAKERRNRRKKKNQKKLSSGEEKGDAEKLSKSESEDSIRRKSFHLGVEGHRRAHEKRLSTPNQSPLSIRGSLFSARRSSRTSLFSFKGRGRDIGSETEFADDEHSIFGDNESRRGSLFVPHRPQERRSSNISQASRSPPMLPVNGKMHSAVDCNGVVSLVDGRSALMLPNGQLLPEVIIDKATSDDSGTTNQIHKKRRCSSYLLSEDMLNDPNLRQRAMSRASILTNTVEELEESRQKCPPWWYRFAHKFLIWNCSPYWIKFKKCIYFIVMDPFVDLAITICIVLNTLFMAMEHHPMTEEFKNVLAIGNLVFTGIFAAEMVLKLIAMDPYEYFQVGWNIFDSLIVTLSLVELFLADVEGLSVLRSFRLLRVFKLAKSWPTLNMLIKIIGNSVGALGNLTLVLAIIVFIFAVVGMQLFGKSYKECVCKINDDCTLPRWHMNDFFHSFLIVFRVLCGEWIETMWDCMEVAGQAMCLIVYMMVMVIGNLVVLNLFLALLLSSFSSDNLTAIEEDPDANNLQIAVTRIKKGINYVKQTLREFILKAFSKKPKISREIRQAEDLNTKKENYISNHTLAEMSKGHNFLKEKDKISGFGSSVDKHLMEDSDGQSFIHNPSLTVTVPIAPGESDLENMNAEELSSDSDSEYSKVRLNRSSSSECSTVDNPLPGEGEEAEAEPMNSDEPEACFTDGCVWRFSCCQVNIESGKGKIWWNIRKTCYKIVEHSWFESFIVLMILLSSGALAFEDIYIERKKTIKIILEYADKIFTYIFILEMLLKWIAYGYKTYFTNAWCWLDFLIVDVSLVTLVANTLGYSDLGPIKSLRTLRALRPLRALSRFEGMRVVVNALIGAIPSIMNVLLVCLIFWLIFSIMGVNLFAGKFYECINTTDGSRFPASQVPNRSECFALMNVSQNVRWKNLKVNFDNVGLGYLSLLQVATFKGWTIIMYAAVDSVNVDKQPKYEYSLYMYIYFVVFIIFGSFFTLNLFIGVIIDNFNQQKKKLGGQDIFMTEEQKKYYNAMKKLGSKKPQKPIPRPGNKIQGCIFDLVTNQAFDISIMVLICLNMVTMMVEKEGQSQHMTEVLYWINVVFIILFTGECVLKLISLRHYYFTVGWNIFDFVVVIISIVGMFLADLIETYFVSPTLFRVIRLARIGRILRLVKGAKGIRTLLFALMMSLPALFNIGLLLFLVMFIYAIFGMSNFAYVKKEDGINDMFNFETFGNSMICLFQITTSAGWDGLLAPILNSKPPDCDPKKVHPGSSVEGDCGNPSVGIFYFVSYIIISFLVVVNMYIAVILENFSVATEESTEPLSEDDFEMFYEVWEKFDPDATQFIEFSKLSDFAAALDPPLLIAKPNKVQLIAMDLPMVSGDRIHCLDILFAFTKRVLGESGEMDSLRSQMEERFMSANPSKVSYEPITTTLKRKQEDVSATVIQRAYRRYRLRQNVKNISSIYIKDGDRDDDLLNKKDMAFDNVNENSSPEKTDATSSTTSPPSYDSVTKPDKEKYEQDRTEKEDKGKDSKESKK

Compared with `C[C@@]1(c2cccc(F)c2)C[C@H](N2CCN(c3cccc4c3cnn4-c3ccccc3F)C2=O)CO1` [Example 195, 2,5-anhydro-1,3,4-trideoxy-2-(3-fluorophenyl)-4-{3-[1-(2-fluorophenyl)-1H-indazol-4-yl]-2-oxoimidazolidin-1-yl}-D-erythro-pentitol], `C[C@@]1(c2cccc(F)c2)C[C@@H](N2CCN(c3cccc4c3cnn4-c3ccccc3F)C2=O)CO1` [Example 203, 2,5-anhydro-1,3,4-trideoxy-2-(3-fluorophenyl)-4-{3-[1-(2-fluorophenyl)-1H-indazol-4-yl]-2-oxoimidazolidin-1-yl}-L-threo-pentitol] is 2.6-fold higher in IC50: 1390 nM for the first, 3670 nM for the second.

`O=C1N(c2cccc3c2cnn3-c2ccccc2F)CCN1[C@H]1CO[C@H](c2cccc(F)c2)C1` [Example 196, 1-[1-(2-fluorophenyl)-1H-indazol-4-yl]-3-[(3R,5S)-5-(3-fluorophenyl)tetrahydrofuran-3-yl]imidazolidin-2-one] and `O=C1N(c2cccc3c2cnn3-c2ccccc2F)CCN1C1CCC(O)C1` (centres unmarked) [Example 204, 1-[1-(2-fluorophenyl)-1H-indazol-4-yl]-3-(3-hydroxycyclopentyl)imidazolidin-2-one] are within 1.5-fold of each other in IC50: 4310 nM for the first, 3410 nM for the second.

Going from `O=C1N(Cc2cc(F)ccc2F)CCN1c1cccc2c1cnn2-c1ccccc1F` [Example 197, 1-(2,5-difluorobenzyl)-3-[1-(2-fluorophenyl)-1H-indazol-4-yl]imidazolidin-2-one] to `O=C1N(Cc2ccncc2)CCN1c1cccc2c1cnn2-c1ccccc1F` [Example 210, 1-[1-(2-fluorophenyl)-1H-indazol-4-yl]-3-(pyridin-4-ylmethyl)imidazolidin-2-one], the IC50 rises from 2140 nM to 3330 nM (1.6-fold).

`O=C1N(Cc2cccnc2)CCN1c1cccc2c1cnn2-c1ccccc1F` [Example 198, 1-[1-(2-fluorophenyl)-1H-indazol-4-yl]-3-(pyridin-3-ylmethyl)imidazolidin-2-one] and `O=C1N(CCc2cccnc2)CCN1c1cccc2c1cnn2-c1ccccc1F` [Example 220, 1-[1-(2-fluorophenyl)-1H-indazol-4-yl]-3-[2-(pyridin-3-yl)ethyl]imidazolidin-2-one] are within 1.5-fold of each other in IC50: 1240 nM for the first, 1840 nM for the second.

Compared with `Cc1cc(CN2CCN(c3cccc4c3cnn4-c3ccccc3F)C2=O)no1` [Example 199, 1-[1-(2-fluorophenyl)-1H-indazol-4-yl]-3-[(5-methyl-1,2-oxazol-3-yl)methyl]imidazolidin-2-one], `Cc1nc(CN2CCN(c3cccc4c3cnn4-c3ccccc3F)C2=O)co1` [Example 211, 1-[1-(2-fluorophenyl)-1H-indazol-4-yl]-3-[(2-methyl-1,3-oxazol-4-yl)methyl]imidazolidin-2-one] is 1.6-fold lower in IC50: 2970 nM for the first, 1900 nM for the second.

Compared with `O=C1N(CC2COC2)CCN1c1cccc2c1cnn2-c1ccccc1F` [Example 200, 1-[1-(2-fluorophenyl)-1H-indazol-4-yl]-3-(oxetan-3-ylmethyl)imidazolidin-2-one], `O=C1N(CC2CCO2)CCN1c1cccc2c1cnn2-c1ccccc1F` (centres unmarked) [Example 223, 1-[1-(2-fluorophenyl)-1H-indazol-4-yl]-3-(oxetan-2-ylmethyl)imidazolidin-2-one] is 3.1-fold higher in IC50: 3610 nM for the first, 11200 nM for the second.

`N#C[C@H]1CCCN1C(=O)CN1CCN(c2cccc3c2cnn3-c2ccccc2F)C1=O` [Example 201, (2R)-1-({3-[1-(2-fluorophenyl)-1H-indazol-4-yl]-2-oxoimidazolidin-1-yl}acetyl)pyrrolidine-2-carbonitrile] and `O=C1N(CC(=O)N2CC3CCC2C3)CCN1c1cccc2c1cnn2-c1ccccc1F` (centres unmarked) [Example 202, 1-[2-(2-azabicyclo[2.2.1]hept-2-yl)-2-oxoethyl]-3-[1-(2-fluorophenyl)-1H-indazol-4-yl]imidazolidin-2-one] are within 1.5-fold of each other in IC50: 661 nM for the first, 681 nM for the second.

Going from `O=C(CN1CCN(c2cccc3c2cnn3-c2ccccc2F)C1=O)N1CC(F)C(F)C1` (centres unmarked) [Example 206, 1-[2-(3,4-difluoropyrrolidin-1-yl)-2-oxoethyl]-3-[1-(2-fluorophenyl)-1H-indazol-4-yl]imidazolidin-2-one] to `CC(=O)N1CC(CN2CCN(c3cccc4c3cnn4-c3ccccc3F)C2=O)C1` [Example 216, 1-[(1-acetylazetidin-3-yl)methyl]-3-[1-(2-fluorophenyl)-1H-indazol-4-yl]imidazolidin-2-one], the IC50 rises from 1060 nM to 20000 nM (19-fold).

Going from `O=C1N(c2cncc(N3CCOCC3)c2)CCN1c1cccc2c1cnn2-c1ccccc1F` [Example 207, 1-[1-(2-fluorophenyl)-1H-indazol-4-yl]-3-[5-(morpholin-4-yl)pyridin-3-yl]imidazolidin-2-one] to `COc1cncc(N2CCN(c3cccc4c3cnn4-c3ccccc3F)C2=O)c1` [Example 230, 1-[1-(2-fluorophenyl)-1H-indazol-4-yl]-3-(5-methoxypyridin-3-yl)imidazolidin-2-one], the IC50 rises from 1870 nM to 3730 nM (2-fold).

`O=C1N(c2cccnn2)CCN1c1cccc2c1cnn2-c1ccccc1F` [Example 208, 1-[1-(2-fluorophenyl)-1H-indazol-4-yl]-3-(pyridazin-3-yl)imidazolidin-2-one] and `O=C1N(c2cnccn2)CCN1c1cccc2c1cnn2-c1ccccc1F` [Example 226, 1-[1-(2-fluorophenyl)-1H-indazol-4-yl]-3-(pyrazin-2-yl)imidazolidin-2-one] are within 1.5-fold of each other in IC50: 3260 nM for the first, 3370 nM for the second.

`O=C(CN1CCN(c2cccc3c2cnn3-c2ccccc2F)C1=O)NCC1CC1` [Example 209, N-(cyclopropylmethyl)-2-{3-[1-(2-fluorophenyl)-1H-indazol-4-yl]-2-oxoimidazolidin-1-yl}acetamide] and `O=C1N(CC(=O)N2[C@H]3CC[C@@H]2CC3)CCN1c1cccc2c1cnn2-c1ccccc1F` [Example 212, 1-{2-[(1s,4s)-7-azabicyclo[2.2.1]hept-7-yl]-2-oxoethyl}-3-[1-(2-fluorophenyl)-1H-indazol-4-yl]imidazolidin-2-one] are within 1.5-fold of each other in IC50: 1060 nM for the first, 1140 nM for the second.

`CC1(CN2CCN(c3cccc4c3cnn4-c3ccccc3F)C2=O)COC1` [Example 213, 1-[1-(2-fluorophenyl)-1H-indazol-4-yl]-3-[(3-methyloxetan-3-yl)methyl]imidazolidin-2-one] and `O=C1N(c2cccc3c2cnn3-c2ccccc2F)CCN1[C@H]1CCOC1` [Example 224, 1-[1-(2-fluorophenyl)-1H-indazol-4-yl]-3-[(3S)-tetrahydrofuran-3-yl]imidazolidin-2-one] are within 1.5-fold of each other in IC50: 3650 nM for the first, 3600 nM for the second.

Going from `CO[C@H](CC(C)C)CN1CCN(c2cccc3c2cnn3-c2ccccc2F)C1=O` [Example 214, 1-[1-(2-fluorophenyl)-1H-indazol-4-yl]-3-[(2R)-2-methoxy-4-methylpentyl]imidazolidin-2-one] to `CO[C@@H](CC(C)C)CN1CCN(c2cccc3c2cnn3-c2ccccc2F)C1=O` [Example 215, 1-[1-(2-fluorophenyl)-1H-indazol-4-yl]-3-[(2S)-2-methoxy-4-methylpentyl]imidazolidin-2-one], the IC50 falls from 2020 nM to 1080 nM (1.9-fold). The second is the more potent here.

`Cc1nc(CN2CCN(c3cccc4c3cnn4-c3ccccc3F)C2=O)cs1` [Example 217, 1-[1-(2-fluorophenyl)-1H-indazol-4-yl]-3-[(2-methyl-1,3-thiazol-4-yl)methyl]imidazolidin-2-one] and `Cc1nc(CN2CCN(c3cccc4c3cnn4-c3ccccc3F)C2=O)c(C)o1` [Example 227, 1-[(2,5-dimethyl-1,3-oxazol-4-yl)methyl]-3-[1-(2-fluorophenyl)-1H-indazol-4-yl]imidazolidin-2-one] are within 1.5-fold of each other in IC50: 1070 nM for the first, 871 nM for the second.

Compared with `O=C1N(Cc2ncccn2)CCN1c1cccc2c1cnn2-c1ccccc1F` [Example 218, 1-[1-(2-fluorophenyl)-1H-indazol-4-yl]-3-(pyrimidin-2-ylmethyl)imidazolidin-2-one], `Cc1cnc(CN2CCN(c3cccc4c3cnn4-c3ccccc3F)C2=O)nc1` [Example 219, 1-[1-(2-fluorophenyl)-1H-indazol-4-yl]-3-[(5-methylpyrimidin-2-yl)methyl]imidazolidin-2-one] is 1.9-fold higher in IC50: 2760 nM for the first, 5210 nM for the second.

`O=C1N(c2nccs2)CCN1c1cccc2c1cnn2-c1ccccc1F` [Example 221, 1-[1-(2-fluorophenyl)-1H-indazol-4-yl]-3-(1,3-thiazol-2-yl)imidazolidin-2-one] and `O=C1N(Cc2ccncn2)CCN1c1cccc2c1cnn2-c1ccccc1F` [Example 222, 1-[1-(2-fluorophenyl)-1H-indazol-4-yl]-3-(pyrimidin-4-ylmethyl)imidazolidin-2-one] are within 1.5-fold of each other in IC50: 9500 nM for the first, 11200 nM for the second.

Compared with `O=C1N(Cc2cocn2)CCCN1c1cccc2c1cnn2-c1ccccc1F` [Example 225, 1-[1-(2-fluorophenyl)-1H-indazol-4-yl]-3-(1,3-oxazol-4-ylmethyl)tetrahydropyrimidin-2(1H)-one], `O=C1N(Cc2cnco2)CCN1c1cccc2c1cnn2-c1ccccc1F` [Example 231, 1-[1-(2-fluorophenyl)-1H-indazol-4-yl]-3-(1,3-oxazol-5-ylmethyl)imidazolidin-2-one] is 3.8-fold lower in IC50: 14000 nM for the first, 3650 nM for the second.

`Cc1cncc(CN2CCN(c3cccc4c3cnn4-c3ccccc3F)C2=O)c1` [Example 228, 1-[1-(2-fluorophenyl)-1H-indazol-4-yl]-3-[(5-methylpyridin-3-yl)methyl]imidazolidin-2-one] and `CC(C)(C)c1cnc(CN2CCN(c3cccc4c3cnn4-c3ccccc3F)C2=O)o1` [Example 233, 1-[(5-tert-butyl-1,3-oxazol-2-yl)methyl]-3-[1-(2-fluorophenyl)-1H-indazol-4-yl]imidazolidin-2-one] are within 1.5-fold of each other in IC50: 1090 nM for the first, 1020 nM for the second.

First: O=C1N(CC2(OCc3ccccc3)CC2)CCN1c1cccc2c1cnn2-c1ccccc1F [Example 229, 1-{[1-(benzyloxy)cyclopropyl]methyl}-3-[1-(2-fluorophenyl)-1H-indazol-4-yl]imidazolidin-2-one]
Second: O=C1C(N2CCN(c3cccc4c3cnn4-c3ccccc3F)C2=O)CCN1Cc1ccccc1 (centres unmarked) [Example 232, 1-(1-benzyl-2-oxopyrrolidin-3-yl)-3-[1-(2-fluorophenyl)-1H-indazol-4-yl]imidazolidin-2-one]
The IC50 of the first is 7.9-fold higher: 9080 nM for the first, 1150 nM for the second.
